Test results reported in ChEMBL document CHEMBL5385901, “Drug repurposing of propafenone to discover novel anti-tumor agents by impairing homologous recombination to delay DNA damage recovery of rare disease conjunctival melanoma” (Eur J Med Chem, 2023).
Calls of active or inactive are those of the source. The calls are words filed in the database; no cut-off is given here.

Tests used:
[1] = Antiproliferative activity against human CM-AS16 cells assessed as cell growth inhibition incubated for 72 hrs by CCK8 assay; assay type: functional, cell-based; conditions: CM-AS16, 72 h
[2] = test system: CRMM-2; experiment: Antiproliferative activity against human CRMM-2 cells assessed as cell growth inhibition incubated for 72 hrs by CCK8 assay; assay type: functional, cell-based; conditions: CRMM-2, 72 h
[3] = Antiproliferative activity against human CM2005.1 cells assessed as cell growth inhibition incubated for 72 hrs by CCK8 assay; assay type: functional, cell-based; conditions: CM2005.1, 72 h
[4] = test system: CRMM-1; experiment: Antiproliferative activity against human CRMM-1 cells assessed as cell growth inhibition incubated for 72 hrs by CCK8 assay; assay type: functional, cell-based; conditions: CRMM-1, 72 h
[5] = Antiproliferative activity against human HL7702 cells assessed as cell growth inhibition incubated for 72 hrs by CCK8 assay; assay type: toxicity, cell-based; conditions: HL7702 (L02) cells
[6] = Antiproliferative activity against human PIG1 cells assessed as cell growth inhibition incubated for 72 hrs by CCK8 assay; assay type: toxicity, cell-based
[7] = Inhibition of homologous recombination in human CRMM-1 cells at 10 uM incubated for 12 hrs by real-time PCR analysis relative to control; assay type: functional
[8] = test system: CRMM-1; experiment: Inhibition of homologous recombination in human CRMM-1 cells at 10 uM incubated for 12 hrs by real-time PCR analysis; assay type: functional, cell-based

Compound | IC50 [1] | IC50 [2] | IC50 [3] | IC50 [4] | IC50 at 72 h [5] | IC50 at 72 h [6] | inhibition at 10 µM [7] | inhibition [8]
CCCNCC(O)COc1ccccc1C(=O)NCc1ccccc1 (centres undefined) | > 100 µM | – | – | – | – | – | – | –
CCCNCC(O)COc1ccccc1C(=O)Cc1ccccc1 (centres undefined) | 40.7 µM | 30.6 µM | 60 µM | 45.9 µM | > 100 µM | > 100 µM | 57.9% | –
O=C(CCCc1ccccc1)c1c(OCCCN2CCCC2)ccc2ccccc12 | 11.9 µM | 8 µM | 12.8 µM | 5.6 µM | 22 µM | 7.8 µM | 71% | –
CCCNCCCOc1cc2c(cc1C(=O)CCCc1ccccc1)OCO2 | 10.8 µM | 8.2 µM | 6.8 µM | 6.9 µM | 32.7 µM | 15.5 µM | 43% | –
CCCOCC(=O)COc1ccccc1C(=O)CCc1ccccc1 | 36.8 µM | 28.7 µM | 40.9 µM | 41.8 µM | 73.1 µM | 56.7 µM | 20.6% | –
CCCCCC(O)COc1ccccc1C(=O)CCc1ccccc1 (centres undefined) | 13.9 µM | 54.5 µM | 46.3 µM | 16.6 µM | 22.3 µM | > 100 µM | 51.2% | –
CCCCCCCNCC(O)COc1ccccc1C(=O)CCc1ccccc1 (centres undefined) | 5.6 µM | 6.6 µM | 4.6 µM | 2.6 µM | 5.7 µM | 8.8 µM | 53.9% | –
CCC(C)(C)NCCCOc1ccc2ccccc2c1C(=O)CCCc1ccccc1 | 3.1 µM | 3.7 µM | 4.1 µM | 4.8 µM | 10.4 µM | 5.7 µM | 44.6% | –
CCCNCCCOc1ccccc1C(=O)CCCc1ccccc1 | 2.1 µM | 3.2 µM | 2.6 µM | 2 µM | 32.9 µM | 1.7 µM | 71.6% | –
C=CC(=O)NCCCOc1ccc2ccccc2c1C(=O)CCCc1ccccc1 | 18.2 µM | 17.2 µM | 36.9 µM | 17.3 µM | 70.2 µM | 25.7 µM | 66.9% | –
O=C(CCCc1ccccc1)c1c(OCCCN2CCC2)ccc2ccccc12 | 32.3 µM | 38.4 µM | 32.9 µM | 20.6 µM | 69.6 µM | 42.1 µM | 17.9% | –
C#CCNCCCOc1ccc2ccccc2c1C(=O)CCCc1ccccc1 | 4.6 µM | 4 µM | 11.7 µM | 6.4 µM | 30.7 µM | 16 µM | 53.2% | –
CCCNCC(O)COc1cccc(C(=O)CCc2ccccc2)c1 (centres undefined) | 16.5 µM | 22.3 µM | 38 µM | 28.3 µM | 69.1 µM | 62.4 µM | 52.5% | –
CCCNCC(O)COc1ccccc1CCCc1ccccc1 (centres undefined) | 6 µM | 20.9 µM | 9.6 µM | 9.2 µM | 19.3 µM | 15.7 µM | 57% | –
CCCOCC(O)COc1ccccc1C(=O)CCc1ccccc1 (centres undefined) | 13.7 µM | 28.9 µM | 53 µM | 20.9 µM | 65 µM | 73.8 µM | 20.1% | –
O=C(CCCc1ccccc1)c1c(OCc2cccnc2)ccc2ccccc12 | – | 48.5 µM | 58.1 µM | 16 µM | 64.9 µM | 24.9 µM | – | inactive
CCCNCCCOc1cccc2cccc(C(=O)CCCc3ccccc3)c12 | 8.8 µM | 5.9 µM | 8.4 µM | 9.8 µM | 10.2 µM | 6.8 µM | 59% | –
O=C(CCCc1ccccc1)c1c(OCCCN2CCSC2)ccc2ccccc12 | 9.2 µM | 6.6 µM | 11.9 µM | 10.2 µM | 51.5 µM | 29.7 µM | 72.1% | –
CCCNCCCOc1ccc2ccccc2c1C(=O)CCCc1ccccc1 | 4 µM | 3.8 µM | 4.1 µM | 3.1 µM | 28.8 µM | 78.2 µM | 75.2% | –
CC(C)(C)CNCCCOc1ccc2ccccc2c1C(=O)CCCc1ccccc1 | 5 µM | 5.1 µM | 5.1 µM | 8.7 µM | 11.1 µM | 4 µM | 52.4% | –
Cc1cncc(COc2ccc3ccccc3c2C(=O)CCCc2ccccc2)c1 | – | 38.3 µM | 33 µM | 21.5 µM | 95.4 µM | 29.1 µM | 47.1% | –

Compound | IC50 [1] | IC50 [2] | IC50 [3] | IC50 [4] | IC50 at 72 h [5] | IC50 at 72 h [6] | inhibition at 10 µM [7] | inhibition [8]
CCCNCC(O)COc1ccccc1C(=O)CCCc1ccccc1 (centres undefined) | 4.9 µM | 28.7 µM | 25.2 µM | 25.3 µM | 46 µM | 33.2 µM | 62.2% | –
CCCCNCCCOc1ccccc1C(=O)CCCc1ccccc1 | 4.9 µM | 1.1 µM | 5.4 µM | 1.8 µM | 3.7 µM | 9.1 µM | 38.3% | –
CCCN(C)CC(O)COc1ccccc1C(=O)CCc1ccccc1 (centres undefined) | 22.6 µM | 14.6 µM | 61.2 µM | 48.7 µM | 97.2 µM | 71.9 µM | 30.3% | –
CCCNCCCOc1cc2ccccc2cc1C(=O)CCCc1ccccc1 | 6.8 µM | 6.7 µM | 6.6 µM | 10.4 µM | 11.9 µM | 13.6 µM | 67.1% | –
O=C(CC(F)(F)F)NCCCOc1ccc2ccccc2c1C(=O)CCCc1ccccc1 | 21.4 µM | 42.2 µM | 19.4 µM | 9.8 µM | 29.9 µM | 18.5 µM | 40.1% | –
CCCNCCCOc1c(C(=O)CCCc2ccccc2)ccc2ccccc12 | 10.8 µM | 7.5 µM | 11.7 µM | 7.2 µM | 28.4 µM | 14.5 µM | 59.3% | –
C=CCNCCCOc1ccc2ccccc2c1C(=O)CCCc1ccccc1 | 3.8 µM | 3.1 µM | 7.6 µM | 2.2 µM | 10.5 µM | 11.4 µM | 55.7% | –
CCCNCC(O)COc1ccccc1 (centres undefined) | > 100 µM | > 100 µM | – | – | – | – | – | –
CCCNCC(O)COc1ccc(C(=O)CCc2ccccc2)cc1 (centres undefined) | 18.9 µM | 21 µM | 56.2 µM | 28.5 µM | 44 µM | 26.8 µM | 5.5% | –
CN1CCN(CCCOc2ccc3ccccc3c2C(=O)CCCc2ccccc2)CC1 | 5.2 µM | 4.2 µM | 5.9 µM | 5.6 µM | 10.5 µM | 10.4 µM | 54.2% | –
CCCNCCCOc1ccccc1C(=O)CCc1ccccc1 | 10 µM | 35.9 µM | 68.5 µM | 54.5 µM | 64.8 µM | 66.4 µM | 65% | –
O=C(CCCc1ccccc1)c1c(OCCCNC2CC2)ccc2ccccc12 | 14.2 µM | 16.4 µM | 10.4 µM | 10.3 µM | 32.4 µM | 8 µM | 29.3% | –
CCCCCCCNCCCOc1ccccc1C(=O)CCCc1ccccc1 | 6.3 µM | 0.6 µM | 1.3 µM | 1.1 µM | 0.7 µM | 0.5 µM | 64.8% | –
O=C(CCCc1ccccc1)c1c(OCCCn2cccc2)ccc2ccccc12 | – | 50.6 µM | 99.2 µM | 75.9 µM | 95.5 µM | 75.2 µM | – | –
O=C(CCc1ccccc1)c1ccccc1 | > 100 µM | > 100 µM | – | > 100 µM | – | – | – | –
CCC(=O)NCCCOc1ccc2ccccc2c1C(=O)CCCc1ccccc1 | 9 µM | 9.3 µM | 37.7 µM | 8.2 µM | 29.5 µM | 19.5 µM | 35% | –
CCCN1CC(COc2ccccc2C(=O)CCc2ccccc2)OC1=O (centres undefined) | > 100 µM | – | – | – | – | – | – | inactive
CCCNCC(O)COc1ccccc1C(O)CCc1ccccc1 (centres undefined) | 18.7 µM | 14.9 µM | 73.3 µM | 55.4 µM | 71.5 µM | 89.6 µM | 15.7% | –
O=C(CCCc1ccccc1)c1c(OCCCN2CCOCC2)ccc2ccccc12 | 4.2 µM | 4.2 µM | 1 µM | 2.3 µM | 31.8 µM | 18.3 µM | 83.2% | –
CCCCCCNCCCOc1ccccc1C(=O)CCCc1ccccc1 | 5.9 µM | 1.6 µM | 15.8 µM | 6.5 µM | 10.6 µM | 9.2 µM | 57.2% | –
CC(C)(C)C(=O)NCCCOc1ccc2ccccc2c1C(=O)CCCc1ccccc1 | – | 29.6 µM | 35.9 µM | 13.1 µM | 39.9 µM | 14.2 µM | 55% | –
